# Assay results: patent publication US7446195B2, “High affinity thiophene-based and furan-based kinase ligands” (Schering Corporation, priority 2005, dated 2008)
# Target: CDK-2 (Homo sapiens, UniProt P24941)
# Test: CDK-2 inhibition (Table 1; fluorescence polarization displacement assay)
# Type: binding
# Conditions: inhibitory effectiveness toward CDK-2
# Experimental: The affinity of lead inhibitors binding to CDK-2 and CDK-2/cyclin A were determined by measuring a Ki value using a fluorescence polarization displacement assay. The deacetylated form of compound BMS-250595 was reacted with Alexa Fluor 647 to generate a compound (BMS-Alexa Fluor647) that bound to both proteins and provided a signal for fluorescence polarization displacement. Binding assays were performed in a 384 well Costar NBS coated plate. A total volume of […] contained concentrations of CDK-2 or CDK-2/cyclin A at […], respectively. The concentration of BMS-Alexa Fluor647 was 50 nM. Serial dilutions of compounds were added to 12 wells. The final buffer concentration was 10 mM Hepes, pH 7.5, 150 mM NaCl, and 1 mM DTT. Samples were incubated at room temperature for 15 minutes and then read in an Analyst HT instrument using an excitation and emission wavelength of 580 and 680 nm, respectively. The […] curve fitting tool described by Zhang et al., 2004 (Zhang R., Mayhood T., Lipari P., Wang Y., Durkin D., Syto R., Gesell J., McNemar C., and Windsor W., Analytical Biochemistry 331 (2004) 138-146)
row,SMILES,IC50 [µM]
1,Cc1cc(O)ccc1NC(=O)c1ccc(C(=O)Nc2ccc(-n3cncn3)cc2)s1 [Compound 33],≤ 1
2,Cc1ccccc1C(=O)Nc1ccc(C(=O)Nc2ccc(-n3cncn3)cc2)s1 [Compound 34],≤ 1
3,COc1ccc(NC(=O)c2ccc(C(=O)Nc3ccc(-n4cncn4)cc3)o2)cc1 [Compound 35],≤ 1
4,Cc1cc(N(C)CCN(C)C)ccc1NC(=O)c1ccc(C(=O)Nc2ccc(-n3cncn3)cc2)s1 [Compound 36],≤ 1
5,O=C(Nc1ccc(-n2cncn2)c(F)c1)c1ccc(C(=O)Nc2ccccc2F)s1 [Compound 37],≤ 1
6,Cc1cc(N[C@H]2CCNC2)ccc1NC(=O)c1ccc(C(=O)Nc2ccc(-n3cncn3)cc2)s1 [Compound 38],≤ 1
7,CN(C(=O)c1ccc(C(=O)Nc2ccc(-n3cncn3)cc2)s1)C1CCCCC1 [Compound 39],≤ 1
8,O=C(Nc1ccc(C(=O)Nc2ccc(-n3cncn3)cc2)s1)c1ccccc1 [Compound 40],≤ 1
9,COc1ccc(NC(=O)c2ccc(C(=O)N3CCC(Oc4cnccn4)CC3)s2)c(C)c1 [Compound 41],1 to 40
10,COc1ccc(C(=O)Nc2ccc(C(=O)Nc3ccc(-n4cncn4)cc3)s2)cc1 [Compound 42],1 to 40
11,C[C@@H](NC(=O)c1ccc(C(=O)Nc2ccc(-n3cncn3)c(F)c2)o1)C1CCCCC1 [Compound 43],1 to 40
12,Cc1cc(NCCN(C)C)ccc1NC(=O)c1ccc(C(=O)Nc2ccc(-n3cncn3)cc2)s1 [Compound 44],1 to 40
13,O=C(Nc1ccccc1)c1ccc(C(=O)Nc2ccc(-n3cncn3)cc2)o1 [Compound 45],1 to 40
14,O=C(Nc1ccc(-n2cncn2)c(F)c1)c1ccc(C(=O)Nc2ccccc2C(F)(F)F)s1 [Compound 46],1 to 40
15,Cc1cc(CN(C)C)ccc1NC(=O)c1ccc(C(=O)Nc2ccc(-n3cncn3)cc2)s1 [Compound 47],1 to 40
16,Cc1cc(CN(C)C)ccc1NC(=O)c1ccc(C(=O)Nc2ccc(-n3cncn3)c(F)c2)s1 [Compound 48],1 to 40
17,O=C(Nc1ccc(-n2cncn2)c(F)c1)c1ccc(C(=O)N[C@H]2CC[C@H](O)CC2)o1 [Compound 49],1 to 40
18,COc1ccc(NC(=O)c2ccc(C(=O)N3CCC(c4ccncc4)C3)s2)c(C)c1 (stereo not shown) [Compound 50],1 to 40
19,CNCc1ccc(NC(=O)c2ccc(C(=O)Nc3ccc(-n4cncn4)cc3)s2)c(C)c1 [Compound 51],1 to 40
20,O=C(NCCN1CCCC1)c1ccc(C(=O)Nc2ccc(-n3cncn3)cc2)s1 [Compound 52],1 to 40
21,O=C(Nc1ccc(Cl)cc1)c1ccc(C(=O)Nc2ccc(-n3cncn3)cc2)s1 [Compound 53],1 to 40
22,O=C(Nc1ccc(-n2cncn2)cc1)c1ccc(C(=O)Nc2cccc(Cl)c2)s1 [Compound 54],1 to 40
23,Cc1ccsc1CNC(=O)c1ccc(C(=O)Nc2ccc(-n3cncn3)cc2)s1 [Compound 55],1 to 40
24,O=C(Nc1ccc(-n2cncn2)cc1)c1ccc(C(=O)N[C@H]2CCc3ccccc32)s1 [Compound 56],1 to 40

row,SMILES,IC50 [µM]
1,CC(=O)N1CCC(NC(=O)c2ccc(C(=O)Nc3ccc(-n4cncn4)cc3)s2)CC1 [Compound 57],1 to 40
2,O=C(Nc1ccc(-n2cncn2)cc1)c1ccc(C(=O)Nc2nc3ccccc3s2)s1 [Compound 58],1 to 40
3,COc1cccc(NC(=O)c2ccc(C(=O)Nc3ccc(-n4cncn4)cc3)s2)c1OC [Compound 59],1 to 40
4,O=C(Nc1ccc(-n2cncn2)cc1)c1ccc(C(=O)Nc2nc3c(s2)CCCC3)s1 [Compound 60],1 to 40
5,COc1ccc(NC(=O)c2ccc(C(=O)Nc3ccc(-n4cncn4)cc3)s2)cc1Cl [Compound 61],1 to 40
6,COc1ccc(Cl)cc1NC(=O)c1ccc(C(=O)Nc2ccc(-n3cncn3)cc2)s1 [Compound 62],1 to 40
7,O=C(NCc1ccccc1)c1ccc(C(=O)Nc2ccc(-n3cncn3)cc2)s1 [Compound 63],1 to 40
8,Cn1nc(C2CC2)cc1NC(=O)c1ccc(C(=O)Nc2ccc(-n3cncn3)cc2)s1 [Compound 64],1 to 40
9,COc1ccc(NC(=O)c2ccc(C(=O)Nc3ccc(F)cc3-n3cncn3)s2)c(C)c1 [Compound 65],1 to 40
10,Cn1nc(-c2ccccc2)cc1NC(=O)c1ccc(C(=O)Nc2ccc(-n3cncn3)cc2)s1 [Compound 66],1 to 40
11,Cc1cc(NC(=O)c2ccc(C(=O)Nc3ccc(-n4cncn4)cc3)s2)n(C)n1 [Compound 67],1 to 40
12,COc1ccc(N(C)C(=O)c2ccc(C(=O)Nc3ccc(-n4cncn4)cc3)s2)cc1 [Compound 68],1 to 40
13,O=C(Nc1ccncc1)c1ccc(C(=O)Nc2ccc(-n3cncn3)cc2)o1 [Compound 69],1 to 40
14,CNCc1ccc(NC(=O)c2ccc(C(=O)Nc3ccc(-n4cncn4)c(F)c3)s2)c(C)c1 [Compound 70],1 to 40
15,COc1ccc(NC(=O)c2ccc(C(=O)N3CCC(c4ccccn4)C3)s2)c(C)c1 (stereo not shown) [Compound 71],1 to 40
16,COc1ccc(N(C)C(=O)c2ccc(C(=O)Nc3ccc(-n4cncn4)cc3)s2)c(C)c1 [Compound 72],1 to 40
17,O=C(Nc1ccc(-n2cncn2)cc1)c1ccc(C(=O)NC2CCCC2)s1 [Compound 73],1 to 40
18,O=C(Nc1ccc(-n2cncn2)cc1)c1ccc(C(=O)N2CCc3ccccc3C2)s1 [Compound 74],1 to 40
19,COC(=O)c1cc(OC)ccc1NC(=O)c1ccc(C(=O)Nc2ccc(-n3cncn3)cc2)s1 [Compound 75],1 to 40
20,COc1ccc(C(=O)Nc2ccc(C(=O)N3CCC(Oc4cnccn4)CC3)s2)c(C)c1 [Compound 76],1 to 40
21,O=C(Nc1ccc(-n2cncn2)c(F)c1)c1ccc(C(=O)Nc2ccccc2-c2ccccc2)s1 [Compound 77],1 to 40
22,O=C(NCCc1cccnc1)c1ccc(C(=O)Nc2ccc(-n3cncn3)cc2)s1 [Compound 78],1 to 40
23,COc1ccc(NC(=O)c2ccc(C(=O)Nc3ccc(-n4cncn4)cc3)s2)c(C(=O)O)c1 [Compound 79],1 to 40

# The remaining lines, values ahead:
row,IC50 [µM],SMILES
1,≥ 40,O=C(Nc1ccc(-n2cncn2)cc1)c1ccc(C(=O)NC2CC2)s1 [Compound 80]
2,≥ 40,CC(C)NC(=O)c1ccc(C(=O)Nc2ccc(-n3cncn3)cc2)s1 [Compound 81]
3,≥ 40,O=C(Nc1ccc(-n2cncn2)cc1)c1ccc(C(=O)NC2CCC2)s1 [Compound 82]
4,≥ 40,CC(C)CNC(=O)c1ccc(C(=O)Nc2ccc(-n3cncn3)cc2)s1 [Compound 83]
5,≥ 40,O=C(Nc1ccc(-n2cncn2)cc1)c1ccc(C(=O)N2CCCCC2)s1 [Compound 84]
6,≥ 40,O=C(Nc1ccc(-n2cncn2)cc1)c1ccc(C(=O)N2CCOCC2)s1 [Compound 85]
7,≥ 40,CCCCN(C)C(=O)c1ccc(C(=O)Nc2ccc(-n3cncn3)cc2)s1 [Compound 86]
8,≥ 40,CN(C)CCNC(=O)c1ccc(C(=O)Nc2ccc(-n3cncn3)cc2)s1 [Compound 87]
9,≥ 40,COC[C@H](C)NC(=O)c1ccc(C(=O)Nc2ccc(-n3cncn3)cc2)s1 [Compound 88]
10,≥ 40,O=C(Nc1ccccc1)c1ccc(C(=O)Nc2ccc(-n3cncn3)cc2)s1 [Compound 89]
11,≥ 40,O=C(Nc1ccc(-n2cncn2)cc1)c1ccc(C(=O)Nc2ccccn2)s1 [Compound 90]
12,≥ 40,O=C(Nc1ccc(-n2cncn2)cc1)c1ccc(C(=O)NC2CCCCC2)s1 [Compound 91]
13,≥ 40,O=C(Nc1ccc(-n2cncn2)cc1)c1ccc(C(=O)Nc2nccs2)s1 [Compound 92]
14,≥ 40,O=C(NC[C@H]1CCCO1)c1ccc(C(=O)Nc2ccc(-n3cncn3)cc2)s1 [Compound 93]
15,≥ 40,O=C(NC[C@@H]1CCCO1)c1ccc(C(=O)Nc2ccc(-n3cncn3)cc2)s1 [Compound 94]
16,≥ 40,CC(CN(C)C)NC(=O)c1ccc(C(=O)Nc2ccc(-n3cncn3)cc2)s1 (stereo not shown) [Compound 95]
17,≥ 40,CN(C(=O)c1ccc(C(=O)Nc2ccc(-n3cncn3)cc2)s1)c1ccccc1 [Compound 96]
18,≥ 40,O=C(NCc1ccccn1)c1ccc(C(=O)Nc2ccc(-n3cncn3)cc2)s1 [Compound 97]
19,≥ 40,O=C(NCc1ccncc1)c1ccc(C(=O)Nc2ccc(-n3cncn3)cc2)s1 [Compound 98]
20,≥ 40,O=C(NCc1cccnc1)c1ccc(C(=O)Nc2ccc(-n3cncn3)cc2)s1 [Compound 99]
21,≥ 40,Cc1ccnc(NC(=O)c2ccc(C(=O)Nc3ccc(-n4cncn4)cc3)s2)c1 [Compound 100]
22,≥ 40,Cc1cccc(NC(=O)c2ccc(C(=O)Nc3ccc(-n4cncn4)cc3)s2)n1 [Compound 101]
23,≥ 40,CN(Cc1ccco1)C(=O)c1ccc(C(=O)Nc2ccc(-n3cncn3)cc2)s1 [Compound 102]
24,≥ 40,O=C(NCCc1c[nH]cn1)c1ccc(C(=O)Nc2ccc(-n3cncn3)cc2)s1 [Compound 103]
25,≥ 40,O=C(Nc1ccc(-n2cncn2)cc1)c1ccc(C(=O)N[C@@H]2CC3CCC2C3)s1 (stereo partly shown) [Compound 104]
26,≥ 40,Cc1cc(CNC(=O)c2ccc(C(=O)Nc3ccc(-n4cncn4)cc3)s2)no1 [Compound 105]
27,≥ 40,O=C(NCC1CCCCC1)c1ccc(C(=O)Nc2ccc(-n3cncn3)cc2)s1 [Compound 106]
28,≥ 40,CN(Cc1ccccc1)C(=O)c1ccc(C(=O)Nc2ccc(-n3cncn3)cc2)s1 [Compound 107]
29,≥ 40,O=C(NCCc1ccccc1)c1ccc(C(=O)Nc2ccc(-n3cncn3)cc2)s1 [Compound 108]
